# Columns and labels:
# [1] = tested on: NCI-H460 cells; test: CDX model, subcutaneously transplanted human lung cancer; format: in vivo, BALB/c nude mice; conditions: for Relative tumor inhibition rate TGI (%): 31st day after inoculation
# Protocol: BALB/c nude mice were subcutaneously inoculated with human lung cancer cells, NCI-H460 cells, to establish a subcutaneously transplanted tumor model of human lung cancer. The experiment was divided into a 20 mg/kg of the test drug compound 01 group, a 40 mg/kg of the test drug compound 01 group, and a vehicle control group with 10% of ethanol+10% of polyoxyethylene (35) castor oil, Cremophor EL+80% of 5% of glucose injection (pH7.4), and 6 mice in each group. […] The 40 mg/kg of the test drug compound 01 group was administered by tail vein injection, once every three weeks, for a total of 2 administrations, and observed for a week after the second administration. The 20 mg/kg of the test drug compound 01 group was administered by intraperitoneal injection once a day for 5 consecutive days and observed for 24 days. The efficacy was evaluated based on the relative tumor inhibition rate TGI (%). The safety evaluation was performed based on changes in animal body weight and mortality. The administered doses of compound 01 were determined based on the MTD experiment.
# The tumor volume of each group of mice was measured on different days respectively, and the average value was obtained.
# [2] = biological target: T1, CYP450R enzyme (Homo sapiens, UniProt P16435); test: Hypoxia-dependent reduction experiment with NADPH and CYP450R; format: biochemical; conditions: in the presence of NADPH and CYP450R enzymes
# T1 sequence (P16435 1-677): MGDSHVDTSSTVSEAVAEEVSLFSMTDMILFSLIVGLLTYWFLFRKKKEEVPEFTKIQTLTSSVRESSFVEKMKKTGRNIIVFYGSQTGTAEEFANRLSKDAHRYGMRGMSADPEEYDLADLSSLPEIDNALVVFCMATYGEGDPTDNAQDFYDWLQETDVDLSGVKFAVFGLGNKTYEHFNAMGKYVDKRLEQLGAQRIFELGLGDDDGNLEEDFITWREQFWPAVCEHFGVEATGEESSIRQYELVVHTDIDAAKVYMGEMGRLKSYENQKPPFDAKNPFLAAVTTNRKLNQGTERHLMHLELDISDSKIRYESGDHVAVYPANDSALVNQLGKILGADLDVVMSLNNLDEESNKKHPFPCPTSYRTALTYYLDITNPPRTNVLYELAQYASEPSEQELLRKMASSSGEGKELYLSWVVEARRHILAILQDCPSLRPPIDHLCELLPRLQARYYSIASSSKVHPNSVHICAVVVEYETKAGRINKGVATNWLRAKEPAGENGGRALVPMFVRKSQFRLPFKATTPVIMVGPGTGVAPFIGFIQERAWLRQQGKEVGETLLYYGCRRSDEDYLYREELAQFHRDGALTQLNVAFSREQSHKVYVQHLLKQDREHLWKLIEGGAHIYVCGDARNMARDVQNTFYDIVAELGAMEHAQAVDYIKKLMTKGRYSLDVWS
# Protocol: Ingredients were added to each tube without NADPH. Next, 50 μL of the condition B samples were transferred into 100 μL of acetonitrile (T=0). For the samples to be tested under hypoxia condition, the tubes were placed in a hypoxia chamber (BACTRON anaerobic/environmental chamber). The reactions were initiated by adding NADPH to tube A and tube C. Then, the samples with NADPH were placed at 37° C. For the samples to be tested in air condition, the tubes were placed in a hot plate at 37° C. After 30 minutes and 2 hours of incubation, 50 μL of samples were taken from each tube and mixed with 100 μL of acetonitrile. All tubes were spun to remove any protein precipitate and placed in HPLC vials for analysis. The results were compared with the standard curve of the authentic standard. The specific composition of the reagents in each sample reaction tube was shown as follow.
# The drugs relative to the initial amount of the test drug (TH-302, compound 01) of the 3 different sample reaction tubes of A/B/C that have been reacted for different times (0/30 min/120 min). The results of adding different concentrations of human NADPH coenzyme were shown in FIG. 3 and FIG. 4, respectively.
# [3] = Hepatomicrosome stability, mouse; conditions: for Remaining percentage after 30 minutes: Mouse, 2 μM
# Protocol: 1a) With NADPH: 10 μL of 20 mg/mL of hepatomicrosome and 40 μL of 10 mM of NADPH were added to medium. The final concentrations of hepatomicrosome and NADPH were 0.5 mg/mL and 1 mM, respectively.
# 1b) Without NADPH: 10 μL of 20 mg/mL hepatomicrosome and 40 μL of ultra-pure H2O were added to medium. The final concentration of hepatomicrosome was 0.5 mg/mL.
# 3) 3) Aliquots of 50 μL from the reaction solutions at 0 minute and 30 minutes were taken. The reaction solutions were stopped by adding 4 volumes of cold acetonitrile and 4 internal standards (IS internal standard, 100 nM of Alprazolam, 200 nM of caffeine, 200 nM of Labetalol, and 2 μM of Ketoprofen) to stop the reaction solution. The samples were centrifuged at 3,220 g for 40 minutes. Aliquots of 100 μL of the supernatants were mixed with 100 μL of ultra-pure H2O. Then, the mixtures were used for LC-MS/MS analysis. All experiments were performed in duplicate. The test results were as follow.
smiles,measurement,setting,value
O=[N+]([O-])c1ccc(C(OP(=O)(N2CC2)N2CC2)C(F)(F)F)c2ccccc12 (stereo not shown) [Compound 01],Relative tumor inhibition rate TGI (%),"[1]; 20 mg/kg, QD×5×1 week, IP, Exp. group 8",76.22%
same,Relative tumor inhibition rate TGI (%),"[1]; 40 mg/kg, Q3W×2, IV, Exp. group 7",66.87%
same,Tumor volume,"[1]; day 7, Exp. group 7, 40 mg/kg, Q3W×2, IV",143.84 mm^3
same,Tumor volume,"[1]; day 7, Exp. group 8, 20 mg/kg, QD×5×1 week, IP",144.63 mm^3
same,Tumor volume,"[1]; day 10, Exp. group 7, 40 mg/kg, Q3W×2, IV",184.06 mm^3
same,Tumor volume,"[1]; day 10, Exp. group 8, 20 mg/kg, QD×5×1 week, IP",173.09 mm^3
same,Tumor volume,"[1]; day 14, Exp. group 7, 40 mg/kg, Q3W×2, IV",153.75 mm^3
same,Tumor volume,"[1]; day 14, Exp. group 8, 20 mg/kg, QD×5×1 week, IP",152.99 mm^3
same,Tumor volume,"[1]; day 17, Exp. group 7, 40 mg/kg, Q3W×2, IV",159.72 mm^3
same,Tumor volume,"[1]; day 17, Exp. group 8, 20 mg/kg, QD×5×1 week, IP",130.06 mm^3
same,Tumor volume,"[1]; day 21, Exp. group 7, 40 mg/kg, Q3W×2, IV",218.13 mm^3
same,Tumor volume,"[1]; day 21, Exp. group 8, 20 mg/kg, QD×5×1 week, IP",129.66 mm^3
same,Tumor volume,"[1]; day 24, Exp. group 7, 40 mg/kg, Q3W×2, IV",291.07 mm^3
same,Tumor volume,"[1]; day 24, Exp. group 8, 20 mg/kg, QD×5×1 week, IP",164.63 mm^3
same,Tumor volume,"[1]; day 28, Exp. group 7, 40 mg/kg, Q3W×2, IV",520.17 mm^3
same,Tumor volume,"[1]; day 28, Exp. group 8, 20 mg/kg, QD×5×1 week, IP",272.20 mm^3
same,Tumor volume,"[1]; day 31, Exp. group 7, 40 mg/kg, Q3W×2, IV",580.70 mm^3
same,Tumor volume,"[1]; day 31, Exp. group 8, 20 mg/kg, QD×5×1 week, IP",447.50 mm^3
same,Tumor volume,"[1]; day 35, Exp. group 7, 40 mg/kg, Q3W×2, IV",447.32 mm^3
same,Tumor volume,"[1]; day 35, Exp. group 8, 20 mg/kg, QD×5×1 week, IP",651.58 mm^3
same,Reduction ratio compared with TH-302,[2],similar
same,Hypoxia-dependent reduction,[2]; 37° C.,showed the hypoxia-dependent reduction reaction
same,Remaining percentage after 30 minutes,[3]; with NADPH,102.89%
same,Remaining percentage after 30 minutes,[3]; without NADPH,103.07%
same,Stability in hepatomicrosomes (conclusion),[3]; mice,relatively stable
